Measurements reported in US20230406859A1, “METHOTREXATE ANALOGS AND METHODS OF USE” (The United States of America, as represented by the …, priority 2020, published 2023).
Where two headings read alike, the source gives them in different places.

How the values were obtained:
Format in all cases: cell-based
[1] = target: T1, DHFR (Homo sapiens, UniProt P00374); settings: HBL1 cells, Western blot
T1 construct: Western blot detection of DHFR levels after treatment of HBL1 cells for 16 h; endogenous in cells; host or cells: HBL1 lymphoma cell line
T1 sequence (P00374 1-187): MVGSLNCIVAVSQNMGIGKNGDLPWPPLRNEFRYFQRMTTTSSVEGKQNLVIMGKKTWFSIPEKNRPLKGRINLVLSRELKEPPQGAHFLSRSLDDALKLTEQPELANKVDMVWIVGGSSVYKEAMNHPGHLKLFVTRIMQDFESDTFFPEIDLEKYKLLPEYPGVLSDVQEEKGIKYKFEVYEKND
Text: (§1) Human embryonic kidney HEK293T cells and immortalized fibroblasts were maintained in DMEM (Gibco) supplemented with 10% fetal bovine serum (Hyclone), 2 mmol/L L-glutamine, Hepes (Gibco), and 100 U/mL penicillin/streptomycin (Invitrogen). The lymphoma cell line HBL1 was maintained in RPMI (Life Technology) supplemented with 5% fetal bovine serum (Hyclone), 2 mmol/L 1-glutamine, Hepes (Gibco), and 100 U/mL penicillin/streptomycin (Invitrogen).
Western blotting: Cells at confluence from 12-well plate treatments were washed with PBS and lysed in 75 μL/well NP40 lysis buffer (Cell Signaling), subjected to agitation and centrifugation. Approximately 100 μg of total protein was used per analysis. […] Blots were first incubated with 1:2000 dilution of anti-human DHFR antibody (Abcam, ab124814, host rabbit) for 16 h at 4° C. with shaking, washed 3× with TBS-T and incubated with 1:2000 dilution of anti-human β-actin primary antibody (Cell Signaling, host mouse) for 1 h at ambient temperature with shaking. Blots were then washed 3× with TBS-T and incubated with 1:5000 HRP secondary antibody (Novex, anti-Rabbit IgG raised in Goat, 1 mg/ml) for 1 h at ambient temperature, then washed with 3×TBS-T and developed with Pierce ECL Dura reagent for 5 min. Immunoreactive bands were imaged on a ChemiDoc Imaging System (Bio-Rad) with 20 s chemiluminescence exposure. The molecular weight marker ladder was imaged with colorimetric auto-exposure, and both images merged.

[2] = test system: HBL1 cells; experiment: CellTiter-Glo assay of cellular ATP levels in HBL1 cells (16 h)
Protocol: Cell Culture Methods: Cells (HBL1, immortalized fibroblasts from a healthy donor, or 293T) were seeded at the numbers indicated in a 12-well plate in 500 ul. […] Human embryonic kidney HEK293T cells and immortalized fibroblasts were maintained in DMEM (Gibco) supplemented with 10% fetal bovine serum (Hyclone), 2 mmol/L L-glutamine, Hepes (Gibco), and 100 U/mL penicillin/streptomycin (Invitrogen). The lymphoma cell line HBL1 was maintained in RPMI (Life Technology) supplemented with 5% fetal bovine serum (Hyclone), 2 mmol/L 1-glutamine, Hepes (Gibco), and 100 U/mL penicillin/streptomycin (Invitrogen). Cells were cultured in incubators maintained at 37° C., with 5% CO2 and 85% humidity.
Cell-Titer-Glo viability assays: Five μL of cells (2500 cells) from the 12-well plate culture were plated into white 1536-well plates (Greiner, Monroe, NC, 789173-F) in 6 replicates. CellTiter-Glo Luminescent Cell Viability Assay (CTG) (Promega, G7572), 2.5 μL/well reagent was added with a BioRAPTR FRD (Beckman Coulter, Sykesville, MD), plates were incubated in the dark at ambient temperature for 10 min, and luminescence measured with a ViewLux 1430 Ultra HTS (Perkin Elmer, Waltham, MA).

[3] = target: T2, human DHFR-HiBiT fusion protein (Homo sapiens, UniProt P00374); experiment: DHFR-HiBiT assay (high-throughput DHFR abundance) in HBL1 cells; settings: HBL1, 24 h, read-out: efficacy (%)
T2 construct: expressed in transfected cells; host or cells: HBL1 cells retrovirally infected with pBMN-Ires-Lyt-2 carrying DHFR-HiBiT
T2 sequence (P00374 with tags, fused parts or gaps): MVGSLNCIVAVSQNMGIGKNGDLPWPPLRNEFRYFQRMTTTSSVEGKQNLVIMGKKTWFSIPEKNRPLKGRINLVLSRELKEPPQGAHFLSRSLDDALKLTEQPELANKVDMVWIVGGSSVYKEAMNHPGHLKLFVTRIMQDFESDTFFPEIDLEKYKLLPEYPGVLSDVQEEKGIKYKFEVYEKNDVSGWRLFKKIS
Text: The human DHFR-HiBiT construct was synthetized (Bio Basic) and cloned into the retroviral vector pBMN-Ires-Lyt-2 (provided by G. Nolan, Stanford University, Stanford, CA) which expresses the coding region of mouse CD8a (Lyt-2) using the restriction sites BamHI/XhoI. All constructs were sequenced to validate authenticity. Infected cells were positively selected based on murine CD8a expression using magnetic beads (Miltenyi Biotech).
as §1, with “Cell culture: Human” for “Human”, “cells” for “cells and immortalized fibroblasts”, “1-glutamine, HEPES (Gibco)” for “L-glutamine, Hepes (Gibco),”, “were” for “was”, “L-glutamine, HEPES (Gibco)” for “1-glutamine, Hepes (Gibco),”
Transfection and retroviral infections: Transfections were performed using Lipofectamine 2000 (Invitrogen) according to the manufacturer's protocol. For retroviral infections, viruses were produced in HEK293T cells and used to infect HBL1 cell line. […] Supernatants containing the retrovirus were collected and filtered at 48- and 72-hours post-transfection. HBL1 cells were centrifuged and then resuspended with the retroviral supernatant with 8 μg/ml of polybrene. The cells were spin-infected twice on consecutive days at 2,500 rpm, at RT, for 90 minutes.
Lytic HiBiT Detection: Cells were plated in solid white 1536-well tissue culture plates (Greiner), at the concentration of 2000 cells/well. After treatment, an equal volume of Nano-Glo HiBiT Lytic Reagent (Promega) containing the substrate furimazine and Large BiT (LgBiT) was added to the cells according to the manufacturer's protocol. Cells were incubated for 10 min at room temperature, and luminescence was measured using a Perkin Elmer ViewLux microplate imager with 30 seconds of exposure time.

[4] = test system: HBL1 cell line; experiment: CellTiter-Glo cell viability (cytotox), HBL1 cell line, 72 hours; settings: HBL1 cell line, CellTiter-Glo; unit inferred
[5] = target: T3, DHFR (Homo sapiens, UniProt P00374); experiment: Western blot for DHFR in MTX-resistant HBL1 cell line; design: dose or concentration left out as unconfirmed
T3 construct: endogenous in cells
T3 sequence (P00374 2-187): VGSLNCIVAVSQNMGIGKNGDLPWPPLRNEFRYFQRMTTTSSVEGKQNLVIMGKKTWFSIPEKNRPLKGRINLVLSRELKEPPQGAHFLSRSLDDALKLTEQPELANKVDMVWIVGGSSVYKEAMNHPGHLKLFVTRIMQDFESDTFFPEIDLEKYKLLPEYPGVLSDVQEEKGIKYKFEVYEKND
Protocol: Protein expression analysis: Cells were collected and homogenized in lysis buffer (20 mM Tris-HCl (pH 7.5), 150 mM NaCl, 1 mM Na2EDTA, 1 mM EGTA 1% Triton, 2.5 mM sodium pyrophosphate) with freshly added protease inhibitors (50 mM HEPES, pH 7.6, 150 mM NaCl, 20 mM EDTA, 10 mM sodium orthovanadate (Vanadate, Na3VO4), 100 mM NaF, 2% Triton X-100, 10 μg/ml aprotinin, 10 μg/ml leupeptin, 0.5 mm phenylmethyl sulfonyl fluoride). […] The membrane was immunoblotted with rabbit polyclonal anti-DHFR or mouse anti-β-actin antibodies. The immune complexes were detected by horseradish peroxidase-conjugated secondary antibodies (Thermo Scientific) and developed using a ChemiDoc MP Imager (Bio-Rad). To detect HiBiT-tagged proteins, the membrane was rinsed for 1 h in TBST and then incubated in LgBiT/buffer solution overnight. Nano-Glo® Luciferase Assay Substrate furimazine was added and incubated 5 minutes, and the blot was exposed on the imager.

[6] = target: thymidylate synthase (TS) (Homo sapiens, UniProt P04818); experiment: Western blot of thymidylate synthase levels in HBL1 cells; design: Western blot detection of folate-cofactor dependent enzyme levels after treatment of HBL1 cells; endogenous in cells; host or cells: HBL1 lymphoma cell line; settings: 1 μM, 16 h
thymidylate synthase (TS), sequence (P04818 2-313 limits assumed): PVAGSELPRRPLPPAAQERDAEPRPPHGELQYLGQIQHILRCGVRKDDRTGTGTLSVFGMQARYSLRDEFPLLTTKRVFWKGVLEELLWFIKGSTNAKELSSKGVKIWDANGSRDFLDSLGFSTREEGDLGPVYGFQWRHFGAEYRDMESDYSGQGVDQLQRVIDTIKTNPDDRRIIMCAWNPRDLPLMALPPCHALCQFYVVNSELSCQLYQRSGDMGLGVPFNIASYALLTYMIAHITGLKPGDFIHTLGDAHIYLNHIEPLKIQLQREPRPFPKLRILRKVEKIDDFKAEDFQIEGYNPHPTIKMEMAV

CN(Cc1cnc2nc(N)nc(N)c2n1)c1ccc(C(=O)N[C@@H](CCC(=O)NCCOCCOCCOCCNC(=O)COc2cccc3c2C(=O)N(C2CCC(=O)NC2=O)C3=O)C(=O)O)cc1 (stereo partly drawn) [NCGC00685965, (19S)-19-(4-(((2,4-diaminopteridin-6-yl)methyl)(methyl)amino)benzamido)-1-((2-(2,6-dioxopiperidin-3-yl)-1,3-dioxoisoindolin-4-yl)oxy)-2,16-dioxo-6,9,12-trioxa-3,15-diazaicosan-20-oic acid]
effect on DHFR protein levels [1]: remained capable of depleting cellular DHFR | effect on DHFR protein levels ([1]; listed as MTX-PROTAC 9): robust DHFR depletion | effect on cellular ATP levels (acute cellular toxicity) [2]: did not significantly alter ATP levels even up to 1 μM | Dmax [3]: 64.2% | IC50 [4]: 5.91 µM | depletion of cellular DHFR [5]: remained capable of depleting cellular DHFR | effect on TS protein level [6]: slight increase in TS
